± gives the uncertainty stated by the source.
Tested on: HepG2 (L1.3 5'UTR promoter firefly luciferase reporter)
Assay: L1 promoter activity (FLuc/RLuc) relative to DMSO vehicle control (% of control); higher = stronger L1 promoter activation
[1] = concentration (uM unless unit written): 50, treatment time: 6 h
[2] = concentration (uM unless unit written): 50, treatment time: 24 h
[3] = concentration (uM unless unit written): 100, treatment time: 6 h
[4] = concentration (uM unless unit written): 500, treatment time: 6 h
[5] = concentration (uM unless unit written): 500, treatment time: 24 h

SMILES: CC(=O)N[C@H]1[C@@H](O[C@@H]2O[C@H](CC(O)[C@H]3O[C@@H](n4ccc(=O)[nH]c4=O)[C@H](O)[C@@H]3O)[C@H](O)[C@H](O)[C@H]2NC(=O)/C=C/CC(C)C)O[C@H](CO)[C@@H](N)[C@@H]1O (stereo partly drawn) [Tunicamycin]
- L1 promoter activity (concentration (uM unless unit written): 5 μg/mL, treatment time: 6 h): 76.6 ± 8.1
- L1 promoter activity (concentration (uM unless unit written): 5 μg/mL, treatment time: 24 h): 73.3 ± 3.2
- L1 promoter activity (concentration (uM unless unit written): 10 μg/mL, treatment time: 6 h): 66.6 ± 7.3
- L1 promoter activity (concentration (uM unless unit written): 10 μg/mL, treatment time: 24 h): 84.5 ± 11
- L1 promoter activity (concentration (uM unless unit written): 20 μg/mL, treatment time: 6 h): 63.5 ± 3.2
- L1 promoter activity (concentration (uM unless unit written): 20 μg/mL, treatment time: 24 h): 72.1 ± 7.7
- L1 promoter activity (concentration (uM unless unit written): 40 μg/mL, treatment time: 24 h): 75.8 ± 6.2

SMILES: CCCC(CCC)C(=O)O [Valproic acid]
- L1 promoter activity (concentration (uM unless unit written): 2500, treatment time: 6 h): 90.2 ± 25
- L1 promoter activity (concentration (uM unless unit written): 2500, treatment time: 24 h): 18.5 ± 1.6

SMILES: CC[C@]1(O)C[C@@H]2CN(CCc3c([nH]c4ccccc34)[C@@](C(=O)OC)(c3cc4c(cc3OC)N(C)[C@H]3[C@@](O)(C(=O)OC)[C@H](OC(C)=O)[C@]5(CC)C=CCN6CC[C@]43[C@@H]65)C2)C1 [Vinblastine]
- L1 promoter activity (concentration (uM unless unit written): 0.1, treatment time: 6 h): 92.8 ± 15
- L1 promoter activity (concentration (uM unless unit written): 0.1, treatment time: 24 h): 181 ± 31
- L1 promoter activity (concentration (uM unless unit written): 1, treatment time: 6 h): 92.1 ± 23
- L1 promoter activity (concentration (uM unless unit written): 1, treatment time: 24 h): 161 ± 30
- L1 promoter activity (concentration (uM unless unit written): 5, treatment time: 6 h): 94 ± 12
- L1 promoter activity (concentration (uM unless unit written): 5, treatment time: 24 h): 207 ± 24

SMILES: CC(=O)CC(c1ccccc1)c1c(O)c2ccccc2oc1=O (stereo not drawn) [Warfarin]
- L1 promoter activity (concentration (uM unless unit written): 25, treatment time: 6 h): 98.9 ± 11
- L1 promoter activity (concentration (uM unless unit written): 25, treatment time: 24 h): 85 ± 5.2
- L1 promoter activity [1]: 89.5 ± 12
- L1 promoter activity [2]: 85.8 ± 14
- L1 promoter activity [3]: 91.7 ± 11
- L1 promoter activity (concentration (uM unless unit written): 100, treatment time: 24 h): 74.2 ± 9.4
- L1 promoter activity [4]: 90.8 ± 25
- L1 promoter activity [5]: 64.1 ± 6.6

SMILES: Cc1cc(CC(=O)O)n(C)c1C(=O)c1ccc(Cl)cc1 [Zomepirac]
- L1 promoter activity [4]: 102 ± 9.6
- L1 promoter activity [5]: 86.3 ± 6.3

SMILES: Clc1ccc(C(c2ccccc2Cl)C(Cl)Cl)cc1 (stereo not drawn) [o.p'-Dichlorodiphenyldichloroethane]
- L1 promoter activity [1]: 97.3 ± 5
- L1 promoter activity [2]: 108 ± 5.8
- L1 promoter activity [3]: 77.5 ± 11
